Read-outs that look alike come from different tables or passages of the source.
Tested on: wild-type ZIKV (Ugandan MR766 strain) in Vero cells
Assay: ZIKV cytopathic effect (CPE) inhibition qHTS assay, CellTiter-Glo readout
Type: cell-based, Zika virus
Conditions: for AC50: Zika virus, Vero
[1] = read-out: Log AC50 (M) (converted)

SMILES	Efficacy	AC50	AC50 [1]	CC-v2 (curve class classification of the dose response curve)	AC50 (from Hill fit of the response curve, 50% of maximum activity response, 194 cherry-picked compounds, protocol name not given, read-out: AC50)	AC50 (potency in log units (Molar) from Hill fit of the response curve, 194 cherry-picked compounds, protocol name not given, read-out: Log AC50 (converted))	Efficacy (difference between neutral response and maximum compound response)
Cn1cc(-c2ccncc2)c(-c2ccc(OCc3ccc4ccccc4n3)cc2)n1 [NCGC00346630-05]	-23.654	2.59e-05 M	2.59e-05 M	–	–	–	–
O=C(CCN1CCN(C(=O)OCc2cc(Cl)cc(Cl)c2)CC1)c1ccc2[nH]c(=O)oc2c1 [NCGC00346939-05]	-25.5	7.31e-05 M	7.31e-05 M	–	–	–	–
OCCCNc1cc(-c2ccnc(Nc3cccc(Cl)c3)n2)ccn1 [NCGC00346940-02]	-105.653	6.51e-05 M	6.51e-05 M	-2.1	–	–	–
c1ccc(CNc2nc(N3CCOc4ccccc43)nc3c2CCCC3)cc1 [NCGC00347065-03]	-32.702	5.17e-05 M	5.17e-05 M	–	–	–	–
CC1=CC(=O)[C@@H](O)[C@@]2(C)C1C[C@H]1OC(=O)[C@H](O)[C@@]3(O)[C@@H](C)[C@@H](O)[C@H](O)C2[C@@]13C (stereo partly drawn) [NCGC00347801-02]	-51.479	1.43e-05 M	1.43e-05 M	-1.2	–	–	–
C=C(C)C(=O)O[C@H]1[C@@H]2[C@H](C)C(=O)O[C@@H]2C[C@@H](C)[C@@H]2C=CC(=O)[C@]21C [NCGC00347858-02]	-111.628	4.53e-05 M	4.53e-05 M	-2.1	–	–	–
Nc1c([S+](=O)([O-])c2ccccc2)c2nc3ccccc3nc2n1-c1ccc(F)cc1 [NCGC00351779-01]	-26.957	7.31e-05 M	7.31e-05 M	–	–	–	–
CCCNc1ccc2ncc(-c3ccc4[nH]ncc4c3)n2n1 [NCGC00370724-05]	-62.08	5.8e-05 M	5.8e-05 M	-2.2	–	–	–
Cc1cc(C)c2nc(-c3ccccn3)cc(C(=O)Nc3ccc([S+](=O)([O-])Nc4onc(C)c4C)cc3)c2c1 [NCGC00370745-03]	-23.798	3.26e-05 M	3.26e-05 M	–	–	–	–
O=C(c1cn(Cc2cncn2Cc2ccc(Br)cc2)cc1-c1cccc2ccccc12)N1CCOCC1 [NCGC00370772-05]	-38.989	3.66e-05 M	3.66e-05 M	-2.2	–	–	–
CCN(CC)C(=O)c1ccc(Nc2nc(OCC3CCCCC3)c3nc[nH]c3n2)cc1 [NCGC00370819-01]	-42.267	4.61e-05 M	4.61e-05 M	–	–	–	–
Cc1nc[nH]c1C1CCN(c2nc3cccc4c3n2CCC4=O)CC1 [NCGC00370838-01]	-41.62	1.84e-05 M	1.84e-05 M	-3	–	–	–
CCCCCOc1cc2c(cc1-c1cc(/C=C/C(=O)O)ccc1O)C(C)(C)CCC2(C)C [NCGC00370868-01]	–	–	–	–	1.84e-05 M	1.84e-05 M	-36.339
C[S+](=O)([O-])NC[C@H]1CC[C@H](Nc2nc3c(s2)CCSc2ccccc2-3)CC1 [NCGC00370875-01]	-44.692	7.31e-05 M	7.31e-05 M	-3	–	–	–
CC1(C)CC=C(c2cnc3ccccc3c2)c2cc(C(=O)Nc3ccc(C(=O)O)cc3)ccc21 [NCGC00370906-01]	-33.992	5.17e-05 M	5.17e-05 M	–	–	–	–
CC(C)c1cccc2c(-c3ccccc3)cc(-c3ccc(-c4ccc(C(=O)O)cc4)[nH]3)nc12 [NCGC00370963-01]	-43.883	2.91e-05 M	2.91e-05 M	-3	–	–	–
O=C1N(CC2CCCCN2)CCN1c1ccccc1 (stereo not drawn) [NCGC00370981-01]	-38.034	2.91e-05 M	2.91e-05 M	-3	–	–	–
CN1CC2CN(c3ccc4oc5ccccc5c(=O)c4c3)CC2C1 (stereo not drawn) [NCGC00371020-01]	-29.929	3.17e-05 M	3.17e-05 M	–	–	–	–
Cc1cc2sc(NC(=O)Cc3ccccc3)nc2cc1Cl [NCGC00371143-05]	-24.072	5.8e-05 M	5.8e-05 M	–	–	–	–
